Assay results published in patent publication US7977484B2, “Crystalline form of cyano-1-cyclopropy1-7-1S,6S-2,8-diazabicyclo[4.3.0]nonan-8-yl)-6-fluoro-1,4-dihydro-4-oxo-3-quinoline carboxylic acid” (Bayer Animal Health GmbH, priority 2004, dated 2011).

Legend:
[1] = storage stability of the crystal form; format: physicochemical; details: prolonged storage
[2] = water uptake from the air (hygroscopicity); format: physicochemical

SMILES: N#Cc1c(N2C[C@@H]3CCCN[C@@H]3C2)c(F)cc2c(=O)c(C(=O)O)cn(C3CC3)c12 [Pradofloxacin trihydrate, pradofloxacin trihydrate]
- conversion to other crystal forms [1]: not converted to other crystal forms
- tendency to take up further water from the air [2]: does not show any tendency to take up further water from the air
